{
  "source": "patent US12419307B2",
  "about": "“Mixtures comprising indazole pesticides” (FMC Corporation, priority 2019, dated 2025)",
  "assay_type_in_all_cases": "in vivo",
  "key": {"[1]": {"system": "cotton melon aphid (Aphis gossypii Glover)", "assay": "Test D: cotton melon aphid control on okra plants, insect mortality after 6 days", "conditions": "Aphis gossypii, read-out: % Mortality (obs)", "procedure,_shortened": "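Okra plants (6–7 days old) pre-infested with 30–40 aphids by cut-leaf transfer were sprayed, three replicates, then held 6 days at 19-21° C and 50-70% RH before mortality scoring. Mixture enhancement was judged against Colby-expected % mortality.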"}, "[2]": {"system": "silverleaf whitefly (Bemisia argentifolii Bellows and Perring)", "assay": "Test A: silverleaf whitefly control on cotton or soybean plants, spray, insect mortality after 13 days", "conditions": "Bemisia argentifolii, applied alone, read-out: % Mortality (obs)", "procedure,_shortened": "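Cotton (12–14-day) or soybean (5–7-day) plants carrying whitefly eggs were sprayed with compound in 10% acetone/water with non-ionic surfactant. Plants were held 13 days at 28°C and 50–70% RH; mortality was averaged over three replicates. Mixture enhancement was judged against Colby-expected values.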"}, "[3]": {"system": "Western Flower Thrips (Frankliniella occidentalis Pergande)", "assay": "Test B: Western Flower Thrips control on bean plants, plant damage rating converted to % plant protection after 7 days", "conditions": "for Plant Damage (obs): Table 3a; for Plant Damage (obs) / Plant Protection (obs): applied alone", "procedure,_shortened": "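Sprayed 5- to 7-day-old bean (var. Soleil) plants, 3 replicates, dried 1 h, then infested with 22 to 27 adult thrips and held 7 days at 25° C, 45-55% RH. Feeding damage rated 0-10 and converted as 100−(rating×10) to % plant protection.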"}},
  "note": "Like-named read-outs stand apart in the source and are kept apart here.",
  "data": [
    {"smiles": "CC1(NC(=O)c2cccc3nn(-c4cccnc4)cc23)CC1", "note": "[Cpd 4, N-(1-methylcyclopropyl)-2-(3-pyridinyl)-2H-indazole-4-carboxamide]", "values": [
      {"measurement": "mortality at 0.2 ppm", "setting": "[1]; 5 h, Table 5h", "result": 44.6, "unit": "%"},
      {"measurement": "mortality at 0.5 ppm", "setting": "[1]; 5 h, Table 5h", "result": 68.7, "unit": "%"},
      {"measurement": "mortality at 0.2 ppm", "setting": "[1]; 120 h, Table 5d", "result": 48.3, "unit": "%"},
      {"measurement": "mortality at 0.5 ppm", "setting": "[1]; 120 h, Table 5d", "result": 58.9, "unit": "%"},
      {"measurement": "mortality at 0.2 ppm", "setting": "[1]; Table 5a", "result": 48.3, "unit": "%"},
      {"measurement": "mortality at 0.5 ppm", "setting": "[1]; Table 5a", "result": 58.9, "unit": "%"},
      {"measurement": "mortality at 0.2 ppm", "setting": "[1]; Table 5b", "result": 48.3, "unit": "%"},
      {"measurement": "mortality at 0.5 ppm", "setting": "[1]; Table 5b", "result": 58.9, "unit": "%"},
      {"measurement": "mortality at 0.2 ppm", "setting": "[1]; Table 5c", "result": 6.7, "unit": "%"},
      {"measurement": "mortality at 0.5 ppm", "setting": "[1]; Table 5c", "result": 6.7, "unit": "%"},
      {"measurement": "mortality at 0.2 ppm", "setting": "[1]; Table 5e", "result": 30.8, "unit": "%"},
      {"measurement": "mortality at 0.5 ppm", "setting": "[1]; Table 5e", "result": 69.7, "unit": "%"},
      {"measurement": "mortality at 0.2 ppm", "setting": "[1]; Table 5f", "result": 40.7, "unit": "%"},
      {"measurement": "mortality at 0.5 ppm", "setting": "[1]; Table 5f", "result": 73.4, "unit": "%"},
      {"measurement": "mortality at 0.2 ppm", "setting": "[1]; Table 5g", "result": 21, "unit": "%"},
      {"measurement": "mortality at 0.5 ppm", "setting": "[1]; Table 5g", "result": 45.1, "unit": "%"},
      {"measurement": "mortality at 0.2 ppm", "setting": "[1]; Table 5i", "result": 33.5, "unit": "%"},
      {"measurement": "mortality at 0.5 ppm", "setting": "[1]; Table 5i", "result": 80.3, "unit": "%"},
      {"measurement": "mortality at 0.2 ppm", "setting": "[1]; Table 5j", "result": 33.5, "unit": "%"},
      {"measurement": "mortality at 0.5 ppm", "setting": "[1]; Table 5j", "result": 80.3, "unit": "%"},
      {"measurement": "mortality at 0.2 ppm", "setting": "[1]; Table 5k", "result": 40.2, "unit": "%"},
      {"measurement": "mortality at 0.5 ppm", "setting": "[1]; Table 5k", "result": 69.3, "unit": "%"},
      {"measurement": "mortality at 0.2 ppm", "setting": "[1]; Table 5l", "result": 40.2, "unit": "%"},
      {"measurement": "mortality at 0.5 ppm", "setting": "[1]; Table 5l", "result": 69.3, "unit": "%"},
      {"measurement": "mortality at 0.2 ppm", "setting": "[1]; Table 5m", "result": 42.5, "unit": "%"},
      {"measurement": "mortality at 0.5 ppm", "setting": "[1]; Table 5m", "result": 65, "unit": "%"},
      {"measurement": "mortality at 0.2 ppm", "setting": "[1]; Table 5n", "result": 57.1, "unit": "%"},
      {"measurement": "mortality at 0.5 ppm", "setting": "[1]; Table 5n", "result": 73.9, "unit": "%"},
      {"measurement": "mortality at 50 ppm", "setting": "[2]; 2 h, Table 2h", "result": 0.9, "unit": "%"},
      {"measurement": "mortality at 250 ppm", "setting": "[2]; 2 h, Table 2h", "result": 9.2, "unit": "%"},
      {"measurement": "mortality at 50 ppm", "setting": "[2]; 48 h, Table 2d", "result": 4.9, "unit": "%"},
      {"measurement": "mortality at 250 ppm", "setting": "[2]; 48 h, Table 2d", "result": 8.3, "unit": "%"},
      {"measurement": "mortality at 50 ppm", "setting": "[2]; Table 2a", "result": 5.9, "unit": "%"},
      {"measurement": "mortality at 250 ppm", "setting": "[2]; Table 2a", "result": 11.1, "unit": "%"},
      {"measurement": "mortality at 50 ppm", "setting": "[2]; Table 2b", "result": 46.7, "unit": "%"},
      {"measurement": "mortality at 250 ppm", "setting": "[2]; Table 2b", "result": 20, "unit": "%"},
      {"measurement": "mortality at 50 ppm", "setting": "[2]; Table 2c", "result": 16.1, "unit": "%"},
      {"measurement": "mortality at 250 ppm", "setting": "[2]; Table 2c", "result": 20.5, "unit": "%"},
      {"measurement": "mortality at 50 ppm", "setting": "[2]; Table 2e", "result": 29, "unit": "%"},
      {"measurement": "mortality at 250 ppm", "setting": "[2]; Table 2e", "result": 38.3, "unit": "%"},
      {"measurement": "mortality at 50 ppm", "setting": "[2]; Table 2f", "result": 15, "unit": "%"},
      {"measurement": "mortality at 250 ppm", "setting": "[2]; Table 2f", "result": 17.9, "unit": "%"},
      {"measurement": "mortality at 50 ppm", "setting": "[2]; Table 2g", "result": 30.6, "unit": "%"},
      {"measurement": "mortality at 250 ppm", "setting": "[2]; Table 2g", "result": 23.1, "unit": "%"},
      {"measurement": "mortality at 50 ppm", "setting": "[2]; Table 2i", "result": 7, "unit": "%"},
      {"measurement": "mortality at 250 ppm", "setting": "[2]; Table 2i", "result": 8, "unit": "%"},
      {"measurement": "pest or weed control at 11.1 ppm", "setting": "[3]; Frankliniella occidentalis, 168 h, Table 3e, 11.1 ppm, read-out: Plant Protection (obs)", "result": 60, "unit": "%"},
      {"measurement": "pest or weed control at 36.8 ppm", "setting": "[3]; Frankliniella occidentalis, 168 h, Table 3e, 36.8 ppm, read-out: Plant Protection (obs)", "result": 76.7, "unit": "%"},
      {"measurement": "pest or weed control at 11.1 ppm", "setting": "[3]; Frankliniella occidentalis, 168 h, Table 3f, 11.1 ppm, read-out: Plant Protection (obs)", "result": 73.3, "unit": "%"},
      {"measurement": "pest or weed control at 36.8 ppm", "setting": "[3]; Frankliniella occidentalis, 168 h, Table 3f, 36.8 ppm, read-out: Plant Protection (obs)", "result": 90, "unit": "%"},
      {"measurement": "pest or weed control at 11.1 ppm", "setting": "[3]; Frankliniella occidentalis, 168 h, Table 3g, 11.1 ppm, read-out: Plant Protection (obs)", "result": 20, "unit": "%"},
      {"measurement": "pest or weed control at 36.8 ppm", "setting": "[3]; Frankliniella occidentalis, 168 h, Table 3g, 36.8 ppm, read-out: Plant Protection (obs)", "result": 73.3, "unit": "%"},
      {"measurement": "pest or weed control at 2.93 ppm", "setting": "[3]; Frankliniella occidentalis, 168 h, Table 3d, 2.93 ppm, read-out: Plant Protection (obs)", "result": 50, "unit": "%"},
      {"measurement": "pest or weed control at 11.1 ppm", "setting": "[3]; Frankliniella occidentalis, 168 h, Table 3d, 11.1 ppm, read-out: Plant Protection (obs)", "result": 60, "unit": "%"},
      {"measurement": "pest or weed control at 16.1 ppm", "setting": "[3]; Frankliniella occidentalis, 168 h, Table 3d, 16.1 ppm, read-out: Plant Protection (obs)", "result": 86.7, "unit": "%"},
      {"measurement": "pest or weed control at 36.8 ppm", "setting": "[3]; Frankliniella occidentalis, 168 h, Table 3d, 36.8 ppm, read-out: Plant Protection (obs)", "result": 93.3, "unit": "%"},
      {"measurement": "Plant Damage (obs)", "setting": "[3]; 11.1 ppm", "result": 43.3, "unit": "%"},
      {"measurement": "Plant Damage (obs)", "setting": "[3]; 36.8 ppm", "result": 86.7, "unit": "%"},
      {"measurement": "Plant Protection (obs)", "setting": "[3]; Table 3b, 11.1 ppm", "result": 40.0, "unit": "%"},
      {"measurement": "Plant Protection (obs)", "setting": "[3]; Table 3b, 36.8 ppm", "result": 86.7, "unit": "%"},
      {"measurement": "Plant Protection (obs)", "setting": "[3]; Table 3c, 11.1 ppm", "result": 36.7, "unit": "%"},
      {"measurement": "Plant Protection (obs)", "setting": "[3]; Table 3c, 36.8 ppm", "result": 70.0, "unit": "%"}
    ]}
  ]
}
